One data set deals with Calu-6 cells. The experiment in a line: Cytotoxicity assay in Calu-6 cells (crystal violet). The class given is cell-based. The following applies: 48 hr. The procedure: Calu-6 cells and RITA cells were grown in DMEM cell culture medium containing 10% fetal calf serum in CO2 incubator under 5% CO2 at 37° C. with 100% humidity.
For cytotoxicity assay, Calu-6 cells were seeded in 96 well plates at a density of 3×10^6 cells per plate in the DMEM cell culture medium. The plates were incubated at 37° C. in the presence of 5% CO2 for 24 hr. The DMEM cell culture medium in the plates was exchanged with fresh DMEM cell culture medium containing test compounds at a series of concentrations. The plates were incubated at 37° C. in the presence of 5% CO2 for 48 hr. The plates were then washed with PBS, fixed with 3% formaldehyde solution containing 0.9% NaCl for 1 min, washed by water for 10 sec, and dried overnight. For detection, the plates were stained with crystal violet solution for 5 min at room temperature, washed 5 times with water, and dried at room temperature overnight. After adding ethanol/acetic acid (99:1, v/v, […]) to each well, the plates were measured at 595 nm using an ELISA reader. A dose response curve was obtained for each compound tested by plotting the mean values of the optical densities against compound concentration.

For data set [1], the system named is HPV-31 specific DNA. The experiment in a line: Long-term study: HPV-31 specific DNA level (Southern blot). The class given is cell-based, human papilloma virus. The procedure: (§1) HPV-31 infected cells (3×10^6) were dispensed into 14.5 cm dishes containing fresh E medium and 1×10^6 cells of mitomycin C-treated 3T3 fibroblast feeders. The dishes were incubated in a CO2 incubator under 5% CO2 at 37° C. in 100% humidity. Human A431 epithelial cancer cells were used as HPV-uninfected negative controls. After 6 hr incubation, the cell culture medium was removed and fresh E medium containing 0.85 g/L NaHCO3 and a test compound at concentrations of 10 and 3.3 μg/mL, or control (interferon γ at 200 IU/mL) were added. For each concentration, 4 dishes were prepared. The dishes were incubated at 37° C. in a CO2 incubator. The culture medium was replaced to new E medium containing each concentration of the test compound or control in every 72 hrs. After seven days, or when untreated cells became confluent, one dish of each group was harvested for DNA/RNA extraction, followed by Southern/Northern Blot analysis; and one dish was trypsinized, cell number were determined and cells were seeded in three new dishes, treated and cultured as described above. This procedure was repeated for 9 passages. During these passages, morphology of cells and cell density were monitored.
(§2) Effect on HPV-31 specific DNA and RNA: DNA and RNA were analyzed in Southern and Northern Blot gels for HPV-31 specific sequences. X-ray films were scanned and optical densities of HPV-31 specific DNA and major mRNA species were integrated. Time curves were established by plotting integrated values against number of passages for each treatment dose. The T50 (time required to reduce the level to 50% of control) was determined from the time curves from crossing points of time curves with a line parallel to the x-axis corresponding to 50% of integrals of untreated control sample.

Data set [2] has as its system HPV-31 specific DNA. Description: Short-term study: HPV-31 specific DNA (Southern blot). The class given is cell-based, human papilloma virus. Particulars: at 32 μg/mL, 72 hrs. The procedure:
(§3) Effect on HPV-31 specific DNA and RNA. HPV-31 infected cells (3×10^6) were dispensed into 14.5 cm dishes containing fresh E culture medium and 1×10^6 mitomycin C-treated J2 3T3 fibroblast feeders. After 6 hrs, fresh medium containing 0.85 g/L NaHCO3 and a test compound at a series of concentrations (0, 0.5, 1, 2, 4, 8, 16, and 32 μg/mL) were added. All samples were tested in duplicates at each concentration. After incubation at 37° C. for 72 hrs, the feeder cells were removed with 4 mM EDTA, and DNA and RNA was then isolated. The isolated DNA and RNA were analyzed in Southern and Northern Blot gels for HPV-31 specific sequences. Human A431 epithelial cancer cells were used as HPV-uninfected negative control. X-ray films were scanned and optical densities of HPV-31 specific DNA and major mRNA species were integrated.
(§4) Dose response curves were established by plotting integrated values against the concentrations of the test compound.

Data set [3] relates to HPV-31 specific RNA. Description: Short-term study: HPV-31 specific RNA expression (Northern blot). In kind it is cell-based, human papilloma virus. The following applies: 72 hrs. The procedure: as §3, §4
For data set [4], the target named is T1, phosphatidylcholine-specific phospholipase C (PC-PLC) (Bacillus cereus, UniProt P09598).
T1 construct: purchased Invitrogen
The experiment in a line: Amplex Red phosphatidylcholine-specific phospholipase C (PC-PLC) inhibition assay. The class given is biochemical, B. cereus. The following applies: 30 min at 37° C., triplicate. The procedure:
The inhibitory activities of optically active potassium salts of (+)- and (−)-O-exo/C-exo-tricyclo [5.2.1.0^2,6]-dec-9-yl-xanthic acid 1A ((+)- and (−)-enantiomers 1A) against phosphatidylcholine-specific phospholipase C were evaluated, together with D609 and potassium salt of racemic O-exo/C-exo xanthic acid 1A (racemic 1A), using Amplex Red phosphatidylcholine-specific phospholipase C(PC-PLC) assay kit, which was obtained from Invitrogen (Calsbad, Calif.). D609 was obtained from Sigma Aldrich.
An Amplex Red stock solution (˜20 mM), a working reaction buffer, and a horseradish peroxidase stock solution (200 U/mL), a H2O2 working solution (20 mM), a choline oxidate stock solution (20 U/mL), an alkaline phosphatase stock solution (400 U/mL), and a B. cereus PC-PLC stock solution (10 U/mL) were prepared according to the instruction of the assay kit. The stock solution (100 mg/mL) for each test compound was also prepared by dissolving the compound in water 2 hr prior to the start of the experiment.
A working Amplex Red/HRP/lecithin solution was prepared by adding 200 μL of Amplex Red reagent stock solution, 100 μL of HRP stock solution, 200 μL of alkaline phosphatase stock solution, 100 μL of choline oxidase stock solution, and 78 μL of the lecithin solution to […] of the working reaction buffer. PC-PLC solution (0.2 U/mL) was prepared by diluting the PC-PLC stock solution with the working reaction buffer to the desired concentration.
The test compound (25 μL) at a serious of concentrations was pipetted into a 96 well plate. For uninhibited PC-PLC controls and non-PC-PLC controls, 25 μL of water was added. After the addition of 50 μL of the Amplex Red/HRP/lecithin working solution, the reaction was initiated by adding 25 μL of PC-PLC solution to each well. To the non-PC-PLC controls, 25 μL of water was added instead of PC-PLC solution. The experiment was performed in triplicate. The reactions were protected from light. After incubated for 30 min at 37° C., the reactions were measured with a fluorescence microplate reader using excitation at 550 nm and emission detection at 590 nm. The fluorescent data obtained were corrected for background fluorescence by subtracting the values obtained from the non-PC-PLC controls.

Data set [5] has as its system HPV-31 specific RNA. The experiment in a line: Long-term study: HPV-31 specific RNA level (Northern blot). In kind it is cell-based, human papilloma virus. The procedure:
as §1, §2

Data set [6] has as its system HPV-31-infected CIN612 9E keratinocytes. The experiment in a line: Long-term study: cell proliferation and morphology of CIN612 9E cells over 9 passages. The class given is cell-based. The procedure: as §1
Effect on cell proliferation. Cell numbers in the dishes harvested were determined in a Neubauer hematocytometer. The multiplication factor was determined at every step of passage. The cell number of each culture at the end of the passage was divided by the number of seeded cells at the start of each passage. The end point was reached when keratinocytes treated with a test compound stopped growing. Stop of cell growth was defined as a multiplication factor of no greater than 1.

For data set [7] the test system is unchanged. Description: Short-term study: growth of HPV-31-infected CIN612 9E keratinocytes (crystal violet). In kind it is cell-based. Particulars: at 200 UI/mL, 72 hrs. The procedure:
The inhibitory activities of optically active (−)-enantiomer 1A against human papilloma virus were evaluated using HPV-31-infected CIN612 9E keratinocytes (Meyers et al., Science 1992, 257, 971-973).
Effect on cell proliferation. HPV-31 infected cells were seeded in 96-well plates containing 1×10^6 mitomycin C treated 3T3 cells (1×10^4 cells/well), at a density of 0.5×10^6 cells per plate (0.5×10^4 cells/well) in E medium. After the plates were incubated in a CO2 incubator under 5% CO2 at 37° C. in 100% humidity for six hrs, the cell culture medium was removed and fresh E medium containing 0.85 g/L NaHCO3 and a test compound at a series of concentrations (0, 0.5, 1, 2, 4, 8, 16, 32, 64, and 128 μg/mL), or positive control (interferon γ at 200 IU/mL) was added. […] After the plates were dried on blotting paper upside down overnight, 0.1 mL of ethanol/acetic acid (99:1) was added to each well and optical density at 595 nm was determined in an ELISA reader.
Dose response curves were established by plotting growth against concentrations of the test compound or control. ICso values were determined from the dose response curves from crossing points of the dose response curves with a line parallel to the x-axis corresponding to 50% of uninhibited growth.

[8] abbreviates: at 10 μg/mL, listed as (−)-enantiomer 1A.

In brackets after ≈: the same amount, converted by molar mass.

This note sets out measurements from patent publication US20100240746A1, “STEREOISOMERS OF TRICYCLODECAN-9-YL-XANTHOGENATE” (LUMAVITA AG, priority 2007, published 2010).

T1 sequence (P09598 39-283 limits assumed): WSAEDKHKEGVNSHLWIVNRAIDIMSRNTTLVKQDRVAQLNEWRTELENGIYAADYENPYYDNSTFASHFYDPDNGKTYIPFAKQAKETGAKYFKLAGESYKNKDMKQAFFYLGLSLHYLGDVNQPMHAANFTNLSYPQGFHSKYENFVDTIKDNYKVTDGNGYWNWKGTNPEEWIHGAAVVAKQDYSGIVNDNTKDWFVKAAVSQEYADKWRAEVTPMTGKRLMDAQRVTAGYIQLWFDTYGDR

In the case of `S=C(S)OC1CC2CC1C1CCCC21` (single isomer, unassigned; enantiomer 1a) [(−)-Enantiomer 1A, (−)-O-exo/C-exo-tricyclo[5.2.1.0^2,6]-dec-9-yl-xanthic acid 1A], the LD50 with Calu-6 cells was determined as 94.32 ± 7.33 µg/mL. Besides, the “number of viral genomes per cell remaining” value in the data set on HPV-31 specific DNA [1] (10 μg/mL, after 6 passages) is given as < 5%. Moreover, the “viral DNA remaining” value in the data set with HPV-31 specific DNA [1] (10 μg/mL, after 9 passages) was < 1%. Further, in the data set on HPV-31 specific DNA [1] (10 μg/mL, after a single passage), the “reduction of the number of viral genomes per cell” value was “more than 50%”. Further, the “T50 DNA” value in the data set on HPV-31 specific DNA [1] (setting [8]) is < 1 passages; in the data set with HPV-31 specific DNA [1] (at 10 μg/mL, listed as Cmpd 1A) it was <1 passages. In addition, in the data set with HPV-31 specific DNA [2], the “inhibition of HPV-31 specific DNA” value amounted to 37.5%. For the same molecule, in the data set with HPV-31 specific RNA [3], the “IC50 on the inhibition of HPV-31 specific RNA expression” value was 10.7 µg/mL. For the same molecule, in data set [4], the IC50 is 3.62 ± 0.17 µg/mL (≈ 15.9 µM). The “viral RNA remaining” value in the data set with HPV-31 specific RNA [5] (10 μg/mL, after 9 passages) is < 1%. In addition, the “T50 RNA” value with HPV-31 specific RNA [5] (setting [8]) is reported as < 1 passages; with HPV-31 specific RNA [5] (at 10 μg/mL, listed as Cmpd 1A), <1 passages. Further, the multiplication factor is given as 2.9 in data set [6] (3.3 μg/mL, passage 1); 1.1 in data set [6] (3.3 μg/mL, passage 9); < 1 in data set [6] (10 μg/mL, from passage 7 on); 2.4 in data set [6] (10 μg/mL, passage 5); 1.3 in data set [6] (10 μg/mL, passage 6); 0.1 in data set [6] (10 μg/mL, passage 9).

B1: INF-γ: interferon γ, positive control at 200 IU/mL (protein, UniProt P01579 24-161, looked up)
Interferon gamma: QDPYVKEAENLKKYFNAGHSDVADNGTLFLGILKNWKEESDRKIMQSQIVSFYFKLFKNFKDDQSIQKSVETIKEDMNVKFFNSNKKKRDDFEKLTNYSVTDLNVQRKAIHELIQVMAELSPAAKTGKRKRSQMLFRG
Regarding B1, the “T50 DNA” value in the data set with HPV-31 specific DNA [1] (at 200 IU/mL) came to 2.7 passages. For the same molecule, in data set [7], the “inhibition of the growth of HPV-31-infected CIN612 9E keratinocytes” value is reported as “about 50%”. Also, in the data set on HPV-31 specific RNA [5] (at 200 IU/mL), the “T50 RNA” value turned out to be 3.36 passages. In addition, the multiplication factor came to 0.8 in data set [6] (200 IU/mL, first cell passage) and 2.4 in data set [6] (200 IU/mL, second passage).

For orientation: IC50 means the concentration that gives 50% inhibition. A lower IC50 goes with greater potency.
